Experiment [1] concerns the target human mu-opioid receptor (hMOP) (Homo sapiens (Human), UniProt P35372). Type of experiment: binding.
Experiment [2] deals with human nociceptin/orphanin FQ peptide receptor (hNOP) (Homo sapiens (Human), UniProt P41146). The experiment is classed as binding.
The target of experiment [3] is human delta-opioid receptor (hDOP) (Homo sapiens (Human), UniProt P41143). Nature of the experiment: hDOP receptor binding assay (SPA, [3H]2-D-Ala-deltorphin II). The conditions noted are these: concentration not given; neighbouring values @1μM.

Regarding `CCN(C)[C@]1(c2ccccc2)CC[C@]2(CC1)CN(CC(C)(C)C(N)=O)C(=O)N2` [SC_5064, CIS-3-[8-(Ethyl-methyl-amino)-2-oxo-8-phenyl-1,3-diazaspiro[4.5]decan-3-yl]-2,2-dimethyl-propionamide], the “hMOP % @1μM (given instead of Ki)” value in experiment [1] is listed as 3% @1μM. The “hNOP % @1μM (given instead of Ki)” value in experiment [2] stood at 3% @1μM. In experiment [3], the “DOP %” value was “(DOP 20%)”.

Take `CCN(C)C1(c2ccccc2)CCC2(CC1)CN(CC(C)(C)C(N)=O)C(=O)N2C` (stereo not drawn) [SC_5066, CIS-3-[8-(Ethyl-methyl-amino)-1-methyl-2-oxo-8-phenyl-1,3-diazaspiro[4.5]decan-3-yl]-2,2-dimethyl-propionamide]: the “hMOP % @1μM (given instead of Ki)” value in experiment [1] was 7% @1μM. Further, the “hNOP % @1μM (given instead of Ki)” value in experiment [2] is given as 0% @1μM. Moreover, in experiment [3], the “DOP %” value is “(DOP 22%)”.

These data come from patent publication US10793528B2 (priority 2016, dated 2020).
